Measurements reported in PubChem BioAssay AID1918930 (Molecular Pharmacology Branch, DTP, NCI, 2023).

Tested on: 233499-124-R-J3-PDC complex spheroid viability, % test/control
Assay: Anticancer human tumor 233499-124-R-J3-PDC patient-derived colon adenocarcinoma cell line growth inhibition
Conditions: for IC50: curve of first compound; for viability, T/C: stronger effect = lower value
Source text: Multicellular complex tumor spheroid response to LSD1 Inhibitor Iadademstat in combination with a variety of drugs and investigational agents in selected tumor cell lines
The current study was undertaken to assess response to LSD1 inhibitors in combination with standard-of-care drugs and investigational agents in solid tumor complex spheroid models as well as in the K-562 leukemia. Complex spheroids include a stromal component modeled by human endothelial cells (HUVEC) and fibroblasts modeled by human mesenchymal stem cells (MSCs). The concentration ranges selected for each drug and investigational agent were based upon clinically achievable concentrations if the clinical Cmax of the agent was known.
Compounds. The drugs and investigational agents used in this study are listed on Table 1. All of the agents used, including staurosporine (NSC755774) and gemcitabine (NSC613327), were obtained from the Developmental Therapeutics Program, NCI. FDA-approved anticancer drugs are available from the NCI at http://dtp.nci.nih.gov/branches/dscb/oncology_drugset_explanation.html. Drugs and investigational agents were >95% pure by proton nuclear magnetic resonance (NMR) and liquid chromatography/mass spectrometry (LC/MS). Stock solutions were prepared at 400x in DMSO, stored at -70 degrees C, and diluted in fresh medium prior to their use. The final concentration of DMSO in cell culture wells never exceeded 0.25% (v/v). The FDA-approved anticancer drug set is available from the Developmental Therapeutics Program at https://dtp.cancer.gov/organization/dscb/obtaining/available_plates.htm. All drugs and investigational agents were tested over a range starting from a high concentration at or near the clinical Cmax and decreasing in half-log increments. If the clinical Cmax for an agent had not been determined, the highest concentration tested was 10 microM.
Cell Lines. The patient-derived cancer cell (PDC) lines: 292921-168-R-J2-PDC, K24384-001-R-PDC, and 521955-158-R2-J5-PDC pancreatic carcinomas, 556581-035-R-J1 ovarian carcinoma, 324938-238-R-J1-PDC, 855422-203-R-J1-PDC and 883617-216-R-J1-PDC urothelial bladder carcinomas, 743489-274-T-PDC renal cell carcinoma, 138582-R-J1 Merkel cell tumor, K60290-347-R-J1 and K57222-313-R-J1-PDC glioblastomas, 653999-131-R-J2-PDC, LG0703-F948-PDC, and 349418-098-R-PDC non-small cell lung carcinomas, 885512-296-R-J2-PDC, 171881-019-R-J1-PDC breast carcinomas and 186277-243-T-J2-PDC and 233499-124-R-J2-PDC colon carcinomas were obtained from the NCI Patient-Derived Models Repository (PDMR, https://pdmr.cancer.gov). The established cell lines NCI/ADR-RES (RRID:CVCL_14520 and OVCAR-5 (RRID:CVCL_1628) ovarian carcinomas, 786-O (RRID:CVCL_1051) and A498 (RRID:CVCL_A498) renal cell carcinoma, NCI-H211 (ATCC, cat. CRL-5824; RRID:CVCL_1529), NCI-H196 (ATCC, cat. CRL-5823, RRID:CVCL_1509), SW 1271 (ATCC, cat. CRL-2177, RRID:CVCL_1716) and NCI-H1876 (ATCC, cat. CRL-5902, RRID:CVCL_1503) small cell lung carcinomas, MDA-MB-231 (RRID:CVCL_0062) and MDA-MB-468 (RRID:CVCL_0419)breast carcinomas (10-12). Pooled donor human umbilical vein endothelial cells (HUVEC, Lonza, cat. CC-2519) and human mesenchymal stem cells (hMSC, Lonza, cat. PT-2501) were purchased from Lonza (Walkersville, MD).
Cell Culture. All cells were maintained in an incubator at 37 degrees C and 5% CO2 with 95% humidity. The PDC lines were cultured according to standard operating procedures established by the NCI PDMR (https://pdmr.cancer.gov). Briefly all PDCs were thawed and cultured in Matrigel-coated flasks prepared with a working solution of 1X Ham's F-12 nutrient mix, without supplementation (Invitrogen, Waltham, MA, cat. 11765054), 100 U/mL penicillin-streptomycin (Invitrogen, cat. 15140122), and 2.5% Matrigel (Corning Inc., Corning, NY, cat. 354248) for the first three passages. […]

[1] = second compound 0.1 µM, first compound 0.0316 µM
[2] = second compound 0.1 µM, first compound 0.1 µM
[3] = second compound 0.316 µM, first compound 0.0316 µM
[4] = second compound 0.316 µM, first compound 0.1 µM
[5] = second compound 1 µM, first compound 0.0316 µM
[6] = second compound 1 µM, first compound 0.1 µM
[7] = second compound 3.16 µM, first compound 0.0316 µM
[8] = second compound 3.16 µM, first compound 0.1 µM
[9] = second compound 10 µM, first compound 0.0316 µM
[10] = second compound 10 µM, first compound 0.1 µM
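Also: spheroids exposed to agents for one week before readout.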

Work on `CC(C)CC(NC(=O)CNC(=O)c1cc(Cl)ccc1Cl)B1OC(=O)CC(CC(=O)O)(C(=O)O)O1` (stereo not given) + NC1CCC(NC2CC2c2ccccc2)CC1 yielded an IC50 (second compound 0.1 µM) of 5.11 nM, an IC50 (second compound 0.316 µM) of 5.49 nM and an IC50 (second compound 1 µM) of 4.87 nM. The IC50 (second compound 3.16 µM) was 4.14 nM, the IC50 (second compound 10 µM) was 3.33 nM and the viability, T/C (second compound 0.1 µM, first compound 0.000316 µM) was 104%. The viability, T/C (second compound 0.1 µM, first compound 0.001 µM) was 90.2%, the viability, T/C (second compound 0.1 µM, first compound 0.00316 µM) was 81.8% and the viability, T/C (second compound 0.1 µM, first compound 0.01 µM) was 4.56%. For the same compound, the viability, T/C [1] was 6.96%, the viability, T/C [2] was 5.21% and the viability, T/C (second compound 0.316 µM, first compound 0.000316 µM) was 109%. For the same compound, the viability, T/C (second compound 0.316 µM, first compound 0.001 µM) was 96.2%, the viability, T/C (second compound 0.316 µM, first compound 0.00316 µM) was 88.8% and the viability, T/C (second compound 0.316 µM, first compound 0.01 µM) was 7.64%. For the same compound, the viability, T/C [3] was 8.46%, the viability, T/C [4] was 0.08% and the viability, T/C (second compound 1 µM, first compound 0.000316 µM) was 88.7%. It also gave a viability, T/C (second compound 1 µM, first compound 0.001 µM) of 78.1%, a viability, T/C (second compound 1 µM, first compound 0.00316 µM) of 75.8% and a viability, T/C (second compound 1 µM, first compound 0.01 µM) of 7.01%. It also gave a viability, T/C [5] of 4.17%, a viability, T/C [6] of 2.6% and a viability, T/C (second compound 3.16 µM, first compound 0.000316 µM) of 77.2%. The viability, T/C (second compound 3.16 µM, first compound 0.001 µM) was 70.2%, the viability, T/C (second compound 3.16 µM, first compound 0.00316 µM) was 63.4% and the viability, T/C (second compound 3.16 µM, first compound 0.01 µM) was 6.41%. The viability, T/C [7] was 0.1%, the viability, T/C [8] was 3.85% and the viability, T/C (second compound 10 µM, first compound 0.000316 µM) was 81.8%. It also gave a viability, T/C (second compound 10 µM, first compound 0.001 µM) of 73.7%, a viability, T/C (second compound 10 µM, first compound 0.00316 µM) of 52.8% and a viability, T/C (second compound 10 µM, first compound 0.01 µM) of 6.15%. The viability, T/C [9] was 0.14% and the viability, T/C [10] was 0.16%.

Work on `O=C(c1cc(Cc2n[nH]c(=O)c3ccccc23)ccc1F)N1CCN(C(=O)C2CC2)CC1` + NC1CCC(NC2CC2c2ccccc2)CC1 yielded an IC50 (second compound 0.1 µM) of over 10000 nM, an IC50 (second compound 0.316 µM) of over 10000 nM and an IC50 (second compound 1 µM) of over 10000 nM. It also gave an IC50 (second compound 3.16 µM) of over 10000 nM, an IC50 (second compound 10 µM) of over 10000 nM and a viability, T/C [1] of 101%. It also gave a viability, T/C [2] of 107%, a viability, T/C (second compound 0.1 µM, first compound 0.316 µM) of 102% and a viability, T/C (second compound 0.1 µM, first compound 1 µM) of 102%. The viability, T/C (second compound 0.1 µM, first compound 3.16 µM) was 91.7%, the viability, T/C (second compound 0.1 µM, first compound 10 µM) was 81.6% and the viability, T/C [3] was 109%. The viability, T/C [4] was 102%, the viability, T/C (second compound 0.316 µM, first compound 0.316 µM) was 90.5% and the viability, T/C (second compound 0.316 µM, first compound 1 µM) was 92.3%. The viability, T/C (second compound 0.316 µM, first compound 3.16 µM) was 85.6%, the viability, T/C (second compound 0.316 µM, first compound 10 µM) was 97.3% and the viability, T/C [5] was 94.5%. It also gave a viability, T/C [6] of 83.3%, a viability, T/C (second compound 1 µM, first compound 0.316 µM) of 71.1% and a viability, T/C (second compound 1 µM, first compound 1 µM) of 81.3%. For the same compound, the viability, T/C (second compound 1 µM, first compound 3.16 µM) was 86.1%, the viability, T/C (second compound 1 µM, first compound 10 µM) was 95% and the viability, T/C [7] was 82.7%. For the same compound, the viability, T/C [8] was 90.5%, the viability, T/C (second compound 3.16 µM, first compound 0.316 µM) was 84.8% and the viability, T/C (second compound 3.16 µM, first compound 1 µM) was 75.3%. For the same compound, the viability, T/C (second compound 3.16 µM, first compound 3.16 µM) was 87.1%, the viability, T/C (second compound 3.16 µM, first compound 10 µM) was 79.5% and the viability, T/C [9] was 79.4%. For the same compound, the viability, T/C [10] was 68.2%, the viability, T/C (second compound 10 µM, first compound 0.316 µM) was 67.8% and the viability, T/C (second compound 10 µM, first compound 1 µM) was 69.2%. It also gave a viability, T/C (second compound 10 µM, first compound 3.16 µM) of 79.6% and a viability, T/C (second compound 10 µM, first compound 10 µM) of 69%.
